Laboratory results taken from ChEMBL document CHEMBL3867482, “Design and synthesis of water soluble β-aminosulfone analogues of SCH 900229 as γ-secretase inhibitors” (Bioorg Med Chem Lett, 2016).
In brackets after ≈: the same amount, converted by molar mass.

Tests used:
[1] = Kinetic solubility of compound; type: physicochemical; conditions: read-out: Kinetic_solubility
[2] = biological target: T1, Cytochrome P450 3A4 (Homo sapiens, UniProt P08684); assay: Inhibition of CYP3A4 in human liver microsomes preincubated for 30 mins after 30 secs by LC/MS/MS analysis; type: ADME
[3] = tested on: Mus musculus; assay: Antialzheimer activity in B6C3F1 mouse assessed as amyloid beta 40 level in cortex at 10 mg/kg, po administered as single dose after 3 hrs relative to control; type: functional
[4] = biological target: Cytochrome P450 2C9 (Homo sapiens, UniProt P11712); assay: Inhibition of CYP2C9 in human liver microsomes after 30 secs by LC/MS/MS analysis; type: ADME
[5] = Clearance in human hepatocytes assessed per million cells by HPLC/atmospheric pressure chemical ionization/MS analysis; type: ADME, cell-based, Hepatocyte; conditions: read-out: CLH
[6] = tested on: Mus musculus; assay: Antialzheimer activity in B6C3F1 mouse assessed as amyloid beta 40 level in plasma at 10 mg/kg, po administered as single dose after 3 hrs relative to control; type: functional
[7] = biological target: T1, Cytochrome P450 3A4; assay: Inhibition of CYP3A4 in human liver microsomes after 30 secs by LC/MS/MS analysis; type: ADME
[8] = Clearance in dog hepatocytes assessed per million cells by HPLC/atmospheric pressure chemical ionization/MS analysis; type: ADME, cell-based, Canis lupus familiaris, Hepatocyte; conditions: read-out: CLH
[9] = biological target: Cytochrome P450 2D6 (Homo sapiens, UniProt P10635); assay: Inhibition of CYP2D6 in human liver microsomes after 30 secs by LC/MS/MS analysis; type: ADME
[10] = Inhibition of gamma-secretase in HEK293 cell membranes expressing human APP Swedish/London double mutant assessed as reduction in amyloid beta 40 formation after 1 hr by electrochemiluminescence based immunoassay
[11] = Clearance in monkey hepatocytes assessed per million cells by HPLC/atmospheric pressure chemical ionization/MS analysis; type: ADME, cell-based, Macaca mulatta, Hepatocyte; conditions: rhesus monkey, read-out: CLH
[12] = Clearance in rat hepatocytes assessed per million cells by HPLC/atmospheric pressure chemical ionization/MS analysis; type: ADME, cell-based, Hepatocyte; conditions: read-out: CLH
[13] = AUC (0 to 6 hrs) in mouse at 10 mg/kg, po by LC/MS/MS analysis; type: ADME, organism-based; design: time < 6 hr, dose 10 mg/kg, route oral; conditions: in vivo; for AUC: 6 h, BLD = below limit of detection
[14] = Selectivity ratio of IC50 for human gamma secretase PS2 (1 to 467 residues) expressed in baculovirus infected sf9 cells co-expressing aph-1a to IC50 for gamma secretase PS1 (1 to 448 residues) expressed in baculovirus infected sf9 cells co-expressing aph-1a
[15] = Ratio of drug level in brain to plasma in mouse at 6 hrs; type: ADME, organism-based; conditions: brain and plasma, read-out: BPR

T1 sequence (P08684 whole entry): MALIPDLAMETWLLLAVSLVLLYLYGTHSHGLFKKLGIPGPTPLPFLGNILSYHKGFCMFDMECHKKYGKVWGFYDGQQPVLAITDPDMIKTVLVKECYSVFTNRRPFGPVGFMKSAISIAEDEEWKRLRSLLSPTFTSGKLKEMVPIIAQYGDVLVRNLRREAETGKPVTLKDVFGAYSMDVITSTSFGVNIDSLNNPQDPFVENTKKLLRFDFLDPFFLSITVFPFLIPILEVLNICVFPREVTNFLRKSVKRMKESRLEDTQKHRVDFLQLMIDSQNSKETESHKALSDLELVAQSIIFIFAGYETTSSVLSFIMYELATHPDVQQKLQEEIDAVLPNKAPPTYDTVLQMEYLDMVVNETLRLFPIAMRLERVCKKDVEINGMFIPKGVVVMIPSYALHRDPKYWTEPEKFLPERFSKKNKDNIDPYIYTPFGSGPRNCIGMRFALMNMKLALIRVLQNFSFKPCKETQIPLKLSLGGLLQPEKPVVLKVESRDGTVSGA
Cytochrome P450 2C9, sequence (P11712 whole entry): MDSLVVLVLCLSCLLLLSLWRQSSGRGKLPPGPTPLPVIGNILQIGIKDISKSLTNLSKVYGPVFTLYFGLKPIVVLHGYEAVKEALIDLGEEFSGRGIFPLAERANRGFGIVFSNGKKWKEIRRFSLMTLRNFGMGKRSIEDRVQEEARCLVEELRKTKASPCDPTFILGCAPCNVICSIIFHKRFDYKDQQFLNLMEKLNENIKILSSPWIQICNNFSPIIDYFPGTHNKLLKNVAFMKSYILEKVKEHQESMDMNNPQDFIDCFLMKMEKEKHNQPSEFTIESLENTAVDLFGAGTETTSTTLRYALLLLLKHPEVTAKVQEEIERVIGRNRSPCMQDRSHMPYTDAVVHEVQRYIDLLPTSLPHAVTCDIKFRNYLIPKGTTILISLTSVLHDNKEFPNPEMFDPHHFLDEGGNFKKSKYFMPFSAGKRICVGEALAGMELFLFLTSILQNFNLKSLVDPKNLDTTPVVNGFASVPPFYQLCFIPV
Cytochrome P450 2D6, sequence (P10635 whole entry): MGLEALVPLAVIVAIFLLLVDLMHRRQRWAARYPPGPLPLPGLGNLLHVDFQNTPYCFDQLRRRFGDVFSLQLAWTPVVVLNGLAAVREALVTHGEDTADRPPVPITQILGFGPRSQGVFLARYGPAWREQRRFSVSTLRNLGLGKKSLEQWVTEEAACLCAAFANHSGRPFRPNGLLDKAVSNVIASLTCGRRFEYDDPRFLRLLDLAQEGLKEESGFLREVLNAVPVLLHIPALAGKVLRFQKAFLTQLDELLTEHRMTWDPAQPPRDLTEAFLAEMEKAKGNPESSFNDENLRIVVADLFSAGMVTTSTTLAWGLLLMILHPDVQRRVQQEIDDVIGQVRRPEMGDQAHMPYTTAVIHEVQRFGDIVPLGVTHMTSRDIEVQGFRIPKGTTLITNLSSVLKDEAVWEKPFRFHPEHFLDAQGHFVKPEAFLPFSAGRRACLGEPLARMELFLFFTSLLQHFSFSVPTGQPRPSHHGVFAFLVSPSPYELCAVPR

Compound: CCNCCS(=O)(=O)CC[C@@H]1OCC[C@@]2(S(=O)(=O)c3ccc(Cl)cc3)c3c(F)ccc(F)c3OC[C@@H]12.Cl
- solubility kinetic [1]: ≥ 200 µM

Compound: Cl.O=S(=O)(CC[C@@H]1OCC[C@@]2(S(=O)(=O)c3ccc(Cl)cc3)c3c(F)ccc(F)c3OC[C@@H]12)[C@H]1CCNC1
- solubility kinetic [1]: ≥ 200 µM

Compound: NCCS(=O)(=O)CC[C@@H]1OCC[C@@]2(S(=O)(=O)c3ccc(Cl)cc3)c3c(F)ccc(F)c3OC[C@@H]12 [listing 1 of 2 here]
- IC50 [2]: 2800 nM
- Activity [3]: -52%
- IC50 [4]: > 20000 nM
- hepatocyte CLint [5]: 8.5 µL/min/1e6 cells
- Activity [6]: -54%
- IC50 [7]: 15100 nM
- hepatocyte CLint [8]: 6.4 µL/min/1e6 cells
- IC50 [9]: > 20000 nM
- IC50 [10]: 0.8 nM
- hepatocyte CLint [11]: 20.3 µL/min/1e6 cells
- hepatocyte CLint [12]: 12.1 µL/min/1e6 cells
- AUC(0-t) at 6 h [13]: 0.582 µM·h

Compound: O=S(=O)(CC[C@@H]1OCC[C@@]2(S(=O)(=O)c3ccc(Cl)cc3)c3c(F)ccc(F)c3OC[C@@H]12)C[C@H]1CCCN1 [listing 1 of 2 here]
- Ratio IC50 [14]: 23

Compound: CS(=O)(=O)CC[C@@H]1OCC[C@@]2(S(=O)(=O)c3ccc(Cl)cc3)c3c(F)ccc(F)c3OC[C@@H]12
- Activity [3]: -78%
- Activity [6]: -89%
- IC50 [10]: 1.3 nM
- Ratio IC50 [14]: 25

Compound: O=S(=O)(CC[C@@H]1OCC[C@@]2(S(=O)(=O)c3ccc(Cl)cc3)c3c(F)ccc(F)c3OC[C@@H]12)[C@@H]1CCNC1
- Ratio IC50 [14]: 21

Compound: O=S(=O)(CCO)CC[C@@H]1OCC[C@@]2(S(=O)(=O)c3ccc(Cl)cc3)c3c(F)ccc(F)c3OC[C@@H]12
- Activity [3]: -46%
- Activity [6]: -42%
- IC50 [10]: 1 nM
- solubility kinetic [1]: > 200 µM

Compound: Cl.NCCS(=O)(=O)CC[C@@H]1OCC[C@@]2(S(=O)(=O)c3ccc(Cl)cc3)c3c(F)ccc(F)c3OC[C@@H]12
- solubility kinetic [1]: ≥ 200 µM

Compound: O=S(=O)(CC[C@@H]1OCC[C@@]2(S(=O)(=O)c3ccc(Cl)cc3)c3c(F)ccc(F)c3OC[C@@H]12)CCN1CC[C@H](O)C1
- IC50 [10]: 0.8 nM
- Ratio IC50 [14]: 12

Compound: O=S(=O)(CC[C@@H]1OCC[C@@]2(S(=O)(=O)c3ccc(Cl)cc3)c3c(F)ccc(F)c3OC[C@@H]12)CCN1CCCC1
- IC50 [10]: 1.1 nM
- Ratio IC50 [14]: 13

Compound: O=S(=O)(CCNC1CCC1)CC[C@@H]1OCC[C@@]2(S(=O)(=O)c3ccc(Cl)cc3)c3c(F)ccc(F)c3OC[C@@H]12
- IC50 [10]: 2 nM

Compound: O=S(=O)(CC[C@@H]1OCC[C@@]2(S(=O)(=O)c3ccc(Cl)cc3)c3c(F)ccc(F)c3OC[C@@H]12)CC1=NCCN1
- IC50 [2]: 1000 nM
- IC50 [4]: > 20000 nM
- hepatocyte CLint [5]: 13.7 µL/min/1e6 cells
- Activity [6]: -86%
- IC50 [7]: 13200 nM
- hepatocyte CLint [8]: 20.1 µL/min/1e6 cells
- IC50 [9]: > 20000 nM
- IC50 [10]: 5.9 nM
- hepatocyte CLint [11]: 32 µL/min/1e6 cells
- solubility kinetic [1]: 20 µM (≈ 11.5 µg/mL)
- hepatocyte CLint [12]: 25.9 µL/min/1e6 cells
- AUC(0-t) at 6 h [13]: 0.057 µM·h

Compound: O=S(=O)(CC[C@@H]1OCC[C@@]2(S(=O)(=O)c3ccc(Cl)cc3)c3c(F)ccc(F)c3OC[C@@H]12)CCN1CCNCC1
- IC50 [2]: > 20000 nM
- IC50 [4]: > 20000 nM
- hepatocyte CLint [5]: 5.3 µL/min/1e6 cells
- Activity [6]: -95%
- IC50 [7]: > 20000 nM
- hepatocyte CLint [8]: 7.7 µL/min/1e6 cells
- IC50 [9]: > 20000 nM
- IC50 [10]: 0.8 nM
- hepatocyte CLint [11]: 12.7 µL/min/1e6 cells
- Ratio IC50 [14]: 10
- solubility kinetic [1]: 200 µM (≈ 121 µg/mL)
- hepatocyte CLint [12]: 6.1 µL/min/1e6 cells
- AUC [13]: Bld

Compound: O=S(=O)(CC[C@@H]1OCC[C@@]2(S(=O)(=O)c3ccc(Cl)cc3)c3c(F)ccc(F)c3OC[C@@H]12)CCN1CCOCC1
- IC50 [10]: 3.7 nM
- Ratio IC50 [14]: 10

Compound: Cl.O=S(=O)(CC[C@@H]1OCC[C@@]2(S(=O)(=O)c3ccc(Cl)cc3)c3c(F)ccc(F)c3OC[C@@H]12)[C@@H]1CCNC1
- solubility kinetic [1]: ≥ 200 µM

Compound: O=S(=O)(CC[C@@H]1OCC[C@@]2(S(=O)(=O)c3ccc(Cl)cc3)c3c(F)ccc(F)c3OC[C@@H]12)CCN1CC[C@@H](O)C1
- IC50 [10]: 0.6 nM
- Ratio IC50 [14]: 12

Compound: O=S(=O)(CC[C@@H]1OCC[C@@]2(S(=O)(=O)c3ccc(Cl)cc3)c3c(F)ccc(F)c3OC[C@@H]12)CCN1CCCCC1
- IC50 [10]: 1.3 nM
- Ratio IC50 [14]: 9

Compound: O=S(=O)(CC[C@@H]1OCC[C@@]2(S(=O)(=O)c3ccc(Cl)cc3)c3c(F)ccc(F)c3OC[C@@H]12)[C@H]1CCNC1
- Ratio IC50 [14]: 30

Compound: Cl.O=S(=O)(CC[C@@H]1OCC[C@@]2(S(=O)(=O)c3ccc(Cl)cc3)c3c(F)ccc(F)c3OC[C@@H]12)C1CNC1
- solubility kinetic [1]: > 200 µM

Compound: CN(C)CCS(=O)(=O)CC[C@@H]1OCC[C@@]2(S(=O)(=O)c3ccc(Cl)cc3)c3c(F)ccc(F)c3OC[C@@H]12
- IC50 [2]: 9000 nM
- Activity [3]: -45%
- IC50 [4]: > 20000 nM
- hepatocyte CLint [5]: 57.2 µL/min/1e6 cells
- Activity [6]: -21%
- IC50 [7]: > 20000 nM
- hepatocyte CLint [8]: 56.5 µL/min/1e6 cells
- IC50 [9]: > 20000 nM
- IC50 [10]: 1.7 nM
- hepatocyte CLint [11]: 65 µL/min/1e6 cells
- Ratio IC50 [14]: 20
- solubility kinetic [1]: 50 µM (≈ 28.2 µg/mL)
- hepatocyte CLint [12]: 66.7 µL/min/1e6 cells
- AUC [13]: Bld

Compound: CNCCS(=O)(=O)CC[C@@H]1OCC[C@@]2(S(=O)(=O)c3ccc(Cl)cc3)c3c(F)ccc(F)c3OC[C@@H]12
- Ratio IC50 [14]: 25

Compound: CCNCCS(=O)(=O)CC[C@@H]1OCC[C@@]2(S(=O)(=O)c3ccc(Cl)cc3)c3c(F)ccc(F)c3OC[C@@H]12 [listing 1 of 2 here]
- IC50 [2]: 1400 nM
- IC50 [4]: > 20000 nM
- hepatocyte CLint [5]: 15.1 µL/min/1e6 cells
- Kp at 6 h [15]: 0.4
- IC50 [7]: > 20000 nM
- hepatocyte CLint [8]: 10.8 µL/min/1e6 cells
- IC50 [9]: > 20000 nM
- IC50 [10]: 0.9 nM
- hepatocyte CLint [11]: 44.6 µL/min/1e6 cells
- hepatocyte CLint [12]: 29.1 µL/min/1e6 cells
- AUC(0-t) at 6 h [13]: 1.35 µM·h

Compound: Cl.O=S(=O)(CC[C@@H]1OCC[C@@]2(S(=O)(=O)c3ccc(Cl)cc3)c3c(F)ccc(F)c3OC[C@@H]12)C[C@@H]1CCCN1
- solubility kinetic [1]: ≥ 200 µM

Compound: NCCS(=O)(=O)CC[C@@H]1OCC[C@@]2(S(=O)(=O)c3ccc(Cl)cc3)c3c(F)ccc(F)c3OC[C@@H]12 [listing 2 of 2 here]
- Ratio IC50 [14]: 35

Compound: O=C(O)CS(=O)(=O)CC[C@@H]1OCC[C@@]2(S(=O)(=O)c3ccc(Cl)cc3)c3c(F)ccc(F)c3OC[C@@H]12
- Activity [6]: 47%
- IC50 [10]: 2.7 nM
- Ratio IC50 [14]: 22
- solubility kinetic [1]: > 200 µM

Compound: O=S(=O)(CC[C@@H]1OCC[C@@]2(S(=O)(=O)c3ccc(Cl)cc3)c3c(F)ccc(F)c3OC[C@@H]12)C[C@H]1CCCN1 [listing 2 of 2 here]
- IC50 [2]: 1000 nM
- Activity [3]: -42%
- IC50 [4]: > 20000 nM
- Kp at 6 h [15]: 0.4
- Activity [6]: -71%
- IC50 [7]: > 20000 nM
- hepatocyte CLint [8]: 13.6 µL/min/1e6 cells
- IC50 [9]: > 20000 nM
- IC50 [10]: 1 nM
- hepatocyte CLint [11]: 28 µL/min/1e6 cells
- hepatocyte CLint [12]: 12.8 µL/min/1e6 cells
- AUC(0-t) at 6 h [13]: 2.52 µM·h

Compound: CCNCCS(=O)(=O)CC[C@@H]1OCC[C@@]2(S(=O)(=O)c3ccc(Cl)cc3)c3c(F)ccc(F)c3OC[C@@H]12 [listing 2 of 2 here]
- Ratio IC50 [14]: 18

Compound: Cl.O=S(=O)(CC[C@@H]1OCC[C@@]2(S(=O)(=O)c3ccc(Cl)cc3)c3c(F)ccc(F)c3OC[C@@H]12)C[C@H]1CCCN1
- solubility kinetic [1]: ≥ 200 µM

Compound: CC(C)NCCS(=O)(=O)CC[C@@H]1OCC[C@@]2(S(=O)(=O)c3ccc(Cl)cc3)c3c(F)ccc(F)c3OC[C@@H]12
- IC50 [10]: 0.5 nM
- Ratio IC50 [14]: 30

Compound: CNCCS(=O)(=O)CC[C@@H]1OCC[C@@]2(S(=O)(=O)c3ccc(Cl)cc3)c3c(F)ccc(F)c3OC[C@@H]12.Cl
- solubility kinetic [1]: ≥ 200 µM

Compound: O=S(=O)(CC[C@@H]1OCC[C@@]2(S(=O)(=O)c3ccc(Cl)cc3)c3c(F)ccc(F)c3OC[C@@H]12)CCN1CCC1
- IC50 [10]: 1.6 nM
- Ratio IC50 [14]: 17

Compound: O=S(=O)(CC[C@@H]1OCC[C@@]2(S(=O)(=O)c3ccc(Cl)cc3)c3c(F)ccc(F)c3OC[C@@H]12)C1CNC1
- Activity [6]: -15%
- IC50 [10]: 1.3 nM

Compound: O=S(=O)(CC[C@@H]1OCC[C@@]2(S(=O)(=O)c3ccc(Cl)cc3)c3c(F)ccc(F)c3OC[C@@H]12)C[C@@H]1CCCN1
- Ratio IC50 [14]: 14
